From patent US20080318970A1, “Treatment of Infectious Diseases” (priority 2004, published 2008)
≈ marks a conversion by molar mass, not a printed value.

Experiments:
E. coli, LN 3164 [1] = assay: MIC susceptibility test, microdilution broth method (NCCLS), chemosensitising compound alone; assay type: cell-based; conditions: 37° C., 16 h
Experimental: Bacteria were sub-cultured on Mueller-Hinton agar plates and incubated over night at 37° C. Pre-warmed Mueller-Hinton broth was inoculated with colonies from the plate and incubated for approximately three hours to achieve a log phase culture. The log phase culture of bacteria was diluted with fresh pre-warmed medium and adjusted to a defined Optical Density (OD) at 600 nm in order to give a final assay concentration of 1×10^4 bacteria/ml medium.
Cell growth was tested using the MIC susceptibility tests by use of the microdilution broth method in accordance to the NCCLS Guidelines (NCCLS Guidelines, Methods for Dilution Antimicrobial Susceptibility Tests for Bacteria That Grow Aerobically; Approved Standard, Sixth Edition, Volume 23; Number 2). A 100% Mueller-Hinton broth and a bacterial concentration of 1×10^4/ml were used.
A log phase culture of bacteria was diluted with fresh pre-warmed medium and adjusted to a defined OD at 600 nm in order to give a final concentration of 1×10^4 bacteria/ml medium in each well. Each chemosensitising compound was added to the bacterial culture in the wells in two-fold dilutions in order to give final concentrations ranging from 8 to 500 μg/ml. Trays were incubated at 37° C. for 16 h. Minimal Inhibitory Concentration, (MIC) is defined as the lowest inhibitory concentration showing no visible growth according to the NCCLS Guidelines.

E. coli, LN 3164 [2] = assay: Effect of chemosensitising compounds on DR (DR ratio) with ciprofloxacin, microtiter assay; assay type: cell-based; conditions: MIC ciprofloxacin alone / MIC ciprofloxacin + chemosensitising compound at ¼ of its MIC; E. coli LN 3164
Experimental: The effects of the chemosensitising compounds on DR were studied by the microtiter assay described above by exposing cells to 0-64 μg/ml anti-infective drug in the absence or presence of chemosensitising compound. Each experiment was repeated in tripleduplicate. MIC values represent the mean values of two separate experiments.
A log phase culture of bacteria was diluted with fresh pre-warmed medium and adjusted to a defined OD at 600 nm in order to give a final concentration of 1×10^4 bacteria/ml medium in each well. […] Anti-infective agent was added to the bacterial culture in the wells in two-fold dilutions in order to give final concentrations ranging from 0 to 64 μg/ml. Trays were incubated at 37° C. for 16 h. The DR ratio was defined as the ratio between the MIC value for anti-infective agent alone divided by the MIC for the anti-infective agent in the presence of the chemosensitising compound. This ratio represents the increase in apparent potency of the anti-infective agent caused by the chemosensitising compound, and may be expressed as
DR ratio=(MICanti-infective agent)/(MICanti-infective agent+chemosensitising compound)

E. faecalis F84 = assay: Checkerboard combination study (FIC index); assay type: cell-based, Enterococcus faecalis; conditions: MDR isolate
Experimental: Enterococcus faecalis, F84. A multidrug resistant clinical isolate.
(§1) The synergistic effect was studied by checkerboard combination studies exposing cells to 0-64 μg/ml anti-infective agent in the absence or presence of trans-flupenthixol, cis-flupenthixol or trans-clopenthixol. Each experiment was repeated in tripleduplicate. MIC values represent the mean values of two separate experiments,
A log phase culture of bacteria was diluted with fresh pre-warmed medium and adjusted to a defined OD at 600 nm in order to give a final concentration of 1×10^4 bacteria/ml medium in each well. […] Anti-infective agent was added to the bacterial culture in the wells in two-fold dilutions in order to give final concentrations ranging from 0 to 64 μg/ml Trays were incubated at 37° C. for 16 h. Wells were assessed visually for growth. The Fractional Inhibitory Concentration (FIC) was calculated for each anti-infective agent alone and in combination with trans-flupenthixol, cis-flupenthixol or trans-clopenthixol. The following formulae were used to calculate the FIC index:
(§2) FIC=FICchemosensitising compound+FICanti-infective agent
(§3) FICchemosensitising compound=(MICchemosensitising compound+anti-infective agent)/(MICchemosensitising compound)
(§4) FICanti-infective agent=(MICanti-infective agent+chemosensitising compound/(MICanti-Infective agent)
(§5) Synergy was defined as a FIC index of <0.5.

S. aureus E45 = assay: Checkerboard combination study (FIC index); assay type: cell-based, Staphylococcus aureus; conditions: isolate resistant (R)
Experimental: Staphylococcus aureus E45 MRSA. Clinical isolate. Resistant to methicillin. Susceptible to teicoplanin chloramphenicol, fosfomycin, netilmicin and vancomycin.
as §1
(§6) A log phase culture of bacteria was diluted with fresh pre-warmed medium and adjusted to a defined OD at 600 nm in order to give a final concentration of 1×10^4 bacteria/ml medium in each well. Each chemosensitising compound was added to the bacterial culture in the wells in two-fold dilutions in order to give final concentrations ranging from 0 to 8 μg/ml. Anti-infective agent was added to the bacterial culture in the wells in two-fold dilutions in order to give final concentrations ranging from 0 to 64 μg/ml Trays were incubated at 37° C. for 16 h. Wells were assessed visually for growth. The Fractional Inhibitory Concentration (FIC) was calculated for each anti-infective agent alone and in combination with trans-flupenthixol, cis-flupenthixol or trans-clopenthixol. The following formulae were used to calculate the FIC index:
as §2, §3, §4, §5

E. coli LN 3164 = assay: Checkerboard combination study (FIC index); assay type: cell-based; conditions: MDR isolate
Experimental: E. coli, LN 3164. Acr AB-ToIC MDR in vitro-selected mutant. Resistant to tetracycline, beta-lactams, fluoroquinolones, chloramphenicol and aminoglycosides.
as §1, §6, §2, §3, §4, §5

[3] = system: Enterococcus faecalis BG-029; assay: MIC by microdilution test (NCCLS); assay type: cell-based; conditions: clinical isolate from human urine, resistant to ciprofloxacin
Experimental: A clinical isolate of Enterococcus faecalis BG-029 from human urine was used.
The MICs were determined by the microdilution test according to the NCCLS Guidelines.

[4] = Pharmacokinetic studies of Trans-clopenthixol with mice, concentrations in sera; assay type: in vivo, NMRI mice; conditions: single dose of 0.3 mg per mouse, subcutaneous, 1-24 h (FIG. 4)
Experimental: Pharmacokinetic studies were done with NMRI mice. Concentrations in sera were determined after the administration of a single dose of 0.3 mg per mouse. The drug was administered by subcutaneous injection in the neck region in a volume of 0.2 ml per dose. At 1, 2, 4, 6, and 24 hours after the injection blood samples were obtained from the mice in groups of three. After collection, the blood was centrifuged and the serum was stored at −80° C. until it was analyzed by High Pressure Liquid Chromatography.

[5] = anti-infective agent Dicloxacillin

OCCN1CCN(CC/C=C2\c3ccccc3Sc3ccc(Cl)cc32)CC1 [trans-clopenthixol] gave an MIC (E. coli, LN 3164 [1]) of 16 µg/mL, a DR ratio (E. coli, LN 3164 [2]) of 128 and an FIC index (E. faecalis F84; [5]) of 0.03. For the same molecule, the FIC index (E. faecalis F84; anti-infective agent Vanomycin) was 0.06, the FIC index (S. aureus E45; [5]) was 0.06 and the FIC index (S. aureus E45; anti-infective agent Fucidic acid) was 0.06. For the same molecule, the FIC index (E. coli LN 3164; anti-infective agent Ciprofloxacin) was 0.063, the FIC index (E. coli LN 3164; anti-infective agent Gentamicin) was 0.063 and the FIC index (E. coli LN 3164; anti-infective agent Piperacillin) was 0.063. For the same molecule, the MIC [3] was 6 µg/mL (≈ 15 µM) and the Serum values [4] was “less than 300 ng/ml”.
